The values below come from publication PMC6152231, “Anti-Inflammatory Triterpene Glycosides from the Roots of Ilex dunniana Levl” (Molecules : A Journal of Synthetic Chemistry and Natural …, 2017).

SMILES strings stand for the structures.

Data set [1] relates to LPS-induced NO production in mouse BV2 microglial cells. Description: inhibition of LPS-induced NO production (Griess). It counts as cell-based. The note with it: BV-2, LPS 1 μg/mL, 24 h, n = 3, read-out: IC50 against LPS-induced NO production. The protocol:
BV2 microglial cells were maintained in RPMI1640 medium at 37 °C in 5% CO2. The cells were placed in 48-well plates and preincubated for 24 h, treated with tested triterpene glycosides dissolved in DMSO at various final concentrations (5.0, 10.0, 20.0, 40.0, 80.0 μM) in triplicate for 1 h, and continuously incubated with LPS (1 μg/mL) for 24 h. Dexamethasone (10^−6 M) was used as the positive control. From each well, the supernatants (100 μL) were mixed with an equal amount of Griess reagent at room temperature for 20 min. The concentration of NO2^− was measured for the amount of NO by a microplate reader at 570 nm, using sodium nitrite as the standard to calculate the concentration of the nitrite.

The subject of a further data set is BV2 microglial cells. Description: cytotoxicity, MTT assay. It counts as cell-based, mouse. The note with it: for Cell Viability: 24 h, BV2 microglial cells, n = 3, in % (unit assumed). The protocol:
Cell viabilities were measured using the MTT assay. Briefly, BV2 microglial cells were seeded in 96-well plates at concentrations of 1 × 10^5 cells per well. After incubation for 2 h, the cells were incubated with compounds for 24 h and then washed with PBS three times. Following the washing step, 200 μL of RPMI 1640 medium containing 0.5 mg/mL MTT were added to each well, the cells were then incubated at 37 °C for another 4 h. Finally, the culture medium was removed, and the formazan crystal was dissolved by adding 150 μL of DMSO. Absorbances at 570 nm were measured using a microplate reader.

For data set [2], the system named is ear edema induced by croton oil in mice. Description: croton oil-induced ear edema in mice. It counts as in vivo. To be noted: ICR male mice, dose 1.0 mg/kg, positive control.
Method: On the basis of the inhibition of croton oil-induced ear edema in mice, the topical anti-inflammatory activity of the test compounds was evaluated. Animal experiments were performed in accordance to the Institutional Guidelines for Animal Care and Use of the Chinese Academy of Medical Sciences and Peking Union Medical College. The protocol was approved by the Committee on the Ethics of Animal Experiments of the Chinese Academy of Medical Sciences and Peking Union Medical College (permit pumber: 002973).The croton oil (Croton tiglium L., seed oil) was purchased from Sigma-Aldrich (St. Louis, MO, USA). In ICR male mice (18–20 g, n = 10 per group), croton oil (0.4 mg) was mixed with acetone (1 mL) to be applied to the left ear (10 μL each side) topically to induce ear edema. The animals were administered with candidate extracts (50 mg/kg) for 1 h, followed by treatment with croton oil for 4 h. […] Based on the weight difference between two plugs (8 mm diameter) of the treated (left) and untreated (right) ears, the edematous response was measured. The percentage reduction in edema in treated mice compared with control mice is calculated for the expression of anti-inflammatory activity.

The IC50 is the midpoint of a concentration-inhibition curve. `CCCCOC(=O)C1OC(OC2CCC3(C)C(CCC4(C)C3CC=C3C5C(C(=O)OC6OC(CO)C(O)C(O)C6O)(CCC(C)C5(C)O)CCC34C)C2(C)C)C(O)C(O)C1O` [Compound 1, 3β-(6-O-n-butyl-D-glucuronopyranosyl)-19α-hydroxy-urs-12-en-28-oic acid 28-O-β-D-glucopyranoside]: the IC50 in data set [1] came out at 11.6 ± 0.89 µM. The “Cell Viability” value in the data set with BV2 microglial cells (5.0 μM) worked out at 99.74 ± 1.21; with BV2 microglial cells (10.0 μM) it was 99.28 ± 1.32; in the data set with BV2 microglial cells (20.0 μM), 99.35 ± 1.26; in the data set on BV2 microglial cells (40.0 μM), 99.62 ± 1.89; in the data set on BV2 microglial cells (80.0 μM), 99.70 ± 1.36.
On to `CCCCOC(=O)C1OC(OC2CCC3(C)C(CCC4(C)C3CC=C3C5C(C(=O)OC6OC(CO)C(O)C(O)C6O)(CCC(C)C5(C)O)CCC34C)C2(C)C)C(O)C(OS(=O)(=O)O)C1O` [Compound 2, 3β-(3-O-sulphonyl-6-O-n-butyl-D-glucuronopyranosyl)-19α-hydroxy-urs-12-en-28-oic acid 28-O-β-D-glucopyranoside], for which the concentration for half-maximal inhibition (IC50) in data set [1] was found to be 12.3 ± 1.21 µM. Moreover, the “Cell Viability” value was found to be 98.32 ± 2.05 in the data set with BV2 microglial cells (5.0 μM); 98.25 ± 1.87 in the data set on BV2 microglial cells (10.0 μM); 98.16 ± 1.25 in the data set with BV2 microglial cells (20.0 μM); 98.56 ± 1.37 with BV2 microglial cells (40.0 μM); 98.26 ± 1.88 with BV2 microglial cells (80.0 μM).
On to `C[C@@H]1CC[C@]2(C(=O)O[C@@H]3O[C@H](CO)[C@@H](O)[C@H](O)[C@H]3O)CC[C@]3(C)C(=CCC4[C@@]5(C)CC[C@H](O[C@@H]6O[C@H](CO)[C@@H](O)[C@H](O)[C@H]6O[C@@H]6O[C@H](CO)[C@@H](O[C@@H]7O[C@H](CO)[C@@H](O)[C@H](O)[C@H]7O)[C@H](O)[C@H]6O)C(C)(C)C5CC[C@]43C)[C@@H]2[C@]1(C)O` (stereo partly drawn) [Compound 3, hylonoside II], for which the 50% inhibitory concentration (IC50) in data set [1] was 9.7 ± 0.86 µM. The “Cell Viability” value was determined as 91.74 ± 1.11 with BV2 microglial cells (5.0 μM); 90.28 ± 1.82 in the data set on BV2 microglial cells (10.0 μM); 89.35 ± 1.35 in the data set with BV2 microglial cells (20.0 μM); 88.62 ± 1.21 with BV2 microglial cells (40.0 μM); 88.50 ± 1.32 in the data set on BV2 microglial cells (80.0 μM). Also, the “cytotoxic activity against microglial cell, in words” value in the data set on BV2 microglial cells (BV2 microglial cells in vitro) is recorded as “showed cytotoxic activity”.
For the compound `C[C@H]1CC[C@]2(C(=O)O[C@@H]3O[C@H](CO)[C@@H](O)[C@H](O)[C@H]3O)CC[C@]3(C)C(=CCC4[C@@]5(C)CC[C@H](O[C@@H]6OC[C@H](O)[C@H](OS(=O)(=O)O)[C@H]6O)C(C)(C)C5CC[C@]43C)C2[C@]1(C)O` (stereo partly drawn) [Compound 4, ilexpublesnin H], the IC50 in data set [1] is 33.5 ± 2.11 µM. Also, the “Cell Viability” value in the data set on BV2 microglial cells (5.0 μM) is recorded as 99.36 ± 1.31; in the data set with BV2 microglial cells (10.0 μM), 99.37 ± 1.21; in the data set with BV2 microglial cells (20.0 μM) it was 99.67 ± 1.32; in the data set on BV2 microglial cells (40.0 μM), 99.57 ± 1.53; in the data set on BV2 microglial cells (80.0 μM), 99.33 ± 1.30.
`C[C@H]1CC[C@]2(C(=O)O[C@@H]3O[C@H](CO)[C@@H](O)[C@H](O)[C@H]3O)CC[C@]3(C)C(=CCC4[C@@]5(C)CC[C@H](O[C@@H]6OC[C@@H](O)[C@H](O)[C@H]6OS(=O)(=O)O)C(C)(C)C5CC[C@]43C)C2[C@]1(C)O` (stereo partly drawn) [Compound 5, ilexpublesnin I]: the IC50 in data set [1] was 50.7 ± 3.25 µM. Moreover, the “Cell Viability” value is on record as 98.21 ± 1.93 with BV2 microglial cells (5.0 μM); 99.33 ± 1.54 in the data set on BV2 microglial cells (10.0 μM); 99.32 ± 1.32 with BV2 microglial cells (20.0 μM); 99.21 ± 1.66 in the data set on BV2 microglial cells (40.0 μM); 99.13 ± 1.28 in the data set on BV2 microglial cells (80.0 μM).
With `C[C@@H]1CC[C@]2(C(=O)O[C@@H]3O[C@H](CO)[C@@H](O)[C@H](O)[C@H]3O)CC[C@]3(C)C(=CCC4[C@@]5(C)CC[C@H](OS(=O)(=O)[O-])[C@](C)(CO)C5CC[C@]43C)[C@@H]2[C@]1(C)O.[Na+]` (stereo partly drawn) [Compound 6, ilexoside XXXV], in data set [1], the IC50 came to 22.3 ± 2.23 µM. Further, the “Cell Viability” value in the data set on BV2 microglial cells (5.0 μM) was 102.21 ± 1.03; in the data set with BV2 microglial cells (10.0 μM) it was 102.28 ± 1.56; in the data set on BV2 microglial cells (20.0 μM) it was 103.35 ± 1.58; with BV2 microglial cells (40.0 μM), 103.26 ± 1.28; with BV2 microglial cells (80.0 μM), 103.22 ± 1.89.
As to `C=C1CC[C@]2(C(=O)O[C@@H]3O[C@H](CO)[C@@H](O)[C@H](O)[C@H]3O[C@@H]3O[C@@H](C)[C@H](O)[C@@H](O)[C@H]3O)CC[C@]3(C)C(=CC[C@@H]4[C@@]5(C)CC[C@H](O[C@@H]6OC[C@H](O)[C@H](O[C@@H]7O[C@H](CO)[C@@H](O)[C@H](O)[C@H]7O[C@@H]7O[C@H](CO)[C@@H](O)[C@H](O)[C@H]7O)[C@H]6O[C@@H]6O[C@@H](C)[C@H](O)[C@@H](O)[C@H]6O)C(C)(C)[C@@H]5CC[C@]43C)[C@@H]2[C@]1(C)O` [Compound 7, ilekudinoside F], the half-maximal inhibitory concentration (IC50) in data set [1] amounted to 55.2 ± 3.26 µM. Further, the “Cell Viability” value in the data set with BV2 microglial cells (5.0 μM) came to 101.55 ± 1.42; in the data set with BV2 microglial cells (10.0 μM), 101.68 ± 1.36; in the data set on BV2 microglial cells (20.0 μM), 101.76 ± 1.47; in the data set on BV2 microglial cells (40.0 μM), 101.38 ± 1.58; with BV2 microglial cells (80.0 μM), 101.68 ± 1.38.
Take `C[C@@H]1C[C@H]2[C@@H]3CCC4=CC(=O)C=C[C@]4(C)[C@@]3(F)[C@@H](O)C[C@]2(C)[C@@]1(O)C(=O)CO` [Dexamethasone, reference compound]: the 50% inhibitory concentration (IC50) in data set [1] is 0.03 µM. Further, the “Cell Viability” value in the data set on BV2 microglial cells (5.0 μM) worked out at 101.02 ± 1.01; with BV2 microglial cells (10.0 μM) it was 99.98 ± 1.32; in the data set on BV2 microglial cells (20.0 μM), 100.25 ± 1.67; in the data set on BV2 microglial cells (40.0 μM), 101.37 ± 1.83; with BV2 microglial cells (80.0 μM), 99.78 ± 1.63. Moreover, the “Edema Degree” value in data set [2] was 5.80 ± 0.90 mg. Further, in data set [2] (ear edema vs control group), the “Inhibitation Rate” value was 71.0%.
